{"source": "paper PMC10746543", "about": "“Design principles for cyclin K molecular glue degraders” (Nature Chemical Biology, 2023)", "key": {"CDK13": {"target": "T1, CDK13 (Homo sapiens, UniProt Q14004+Q16531)", "T1 construct": "endogenous in cells; host or cells: MDA-MB-231", "T1 sequence (Q14004 whole entry)": "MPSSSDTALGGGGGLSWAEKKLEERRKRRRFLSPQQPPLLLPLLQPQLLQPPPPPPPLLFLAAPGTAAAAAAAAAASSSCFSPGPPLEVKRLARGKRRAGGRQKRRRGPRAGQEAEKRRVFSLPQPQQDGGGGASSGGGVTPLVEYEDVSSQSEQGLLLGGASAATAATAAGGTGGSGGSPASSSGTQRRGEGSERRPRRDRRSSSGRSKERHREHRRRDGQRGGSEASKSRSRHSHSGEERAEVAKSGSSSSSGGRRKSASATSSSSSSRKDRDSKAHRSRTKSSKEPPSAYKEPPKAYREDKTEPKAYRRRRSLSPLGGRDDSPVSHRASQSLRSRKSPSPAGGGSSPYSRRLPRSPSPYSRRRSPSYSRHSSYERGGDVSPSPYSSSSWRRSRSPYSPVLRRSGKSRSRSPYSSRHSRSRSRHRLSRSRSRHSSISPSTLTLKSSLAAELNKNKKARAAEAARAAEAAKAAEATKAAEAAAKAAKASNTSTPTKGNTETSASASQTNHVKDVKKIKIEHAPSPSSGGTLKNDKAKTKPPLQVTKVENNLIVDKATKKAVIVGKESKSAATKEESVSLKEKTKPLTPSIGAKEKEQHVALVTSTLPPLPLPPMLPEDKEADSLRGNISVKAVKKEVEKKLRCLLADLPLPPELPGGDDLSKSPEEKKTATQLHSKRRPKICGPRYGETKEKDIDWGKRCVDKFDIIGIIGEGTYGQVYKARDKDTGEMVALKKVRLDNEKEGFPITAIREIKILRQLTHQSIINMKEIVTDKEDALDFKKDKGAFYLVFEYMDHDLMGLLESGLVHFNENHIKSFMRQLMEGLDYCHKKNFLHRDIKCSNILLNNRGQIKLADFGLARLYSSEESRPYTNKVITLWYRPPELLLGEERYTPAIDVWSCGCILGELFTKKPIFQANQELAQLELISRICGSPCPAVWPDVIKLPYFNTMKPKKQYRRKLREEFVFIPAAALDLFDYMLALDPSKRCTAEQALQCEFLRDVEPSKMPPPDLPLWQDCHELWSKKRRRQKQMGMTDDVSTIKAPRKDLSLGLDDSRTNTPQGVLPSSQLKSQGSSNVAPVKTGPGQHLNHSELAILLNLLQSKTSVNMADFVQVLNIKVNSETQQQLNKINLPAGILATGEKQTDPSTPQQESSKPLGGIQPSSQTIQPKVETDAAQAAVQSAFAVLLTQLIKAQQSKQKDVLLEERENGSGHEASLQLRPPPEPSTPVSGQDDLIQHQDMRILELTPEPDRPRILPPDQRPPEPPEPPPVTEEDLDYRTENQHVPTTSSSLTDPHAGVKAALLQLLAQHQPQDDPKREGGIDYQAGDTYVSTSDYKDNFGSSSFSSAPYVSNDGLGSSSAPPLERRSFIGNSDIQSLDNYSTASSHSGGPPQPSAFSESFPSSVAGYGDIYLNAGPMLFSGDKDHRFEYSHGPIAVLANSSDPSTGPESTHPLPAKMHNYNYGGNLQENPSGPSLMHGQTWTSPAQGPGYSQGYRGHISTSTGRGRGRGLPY", "T1 sequence (O75909 whole entry partner)": "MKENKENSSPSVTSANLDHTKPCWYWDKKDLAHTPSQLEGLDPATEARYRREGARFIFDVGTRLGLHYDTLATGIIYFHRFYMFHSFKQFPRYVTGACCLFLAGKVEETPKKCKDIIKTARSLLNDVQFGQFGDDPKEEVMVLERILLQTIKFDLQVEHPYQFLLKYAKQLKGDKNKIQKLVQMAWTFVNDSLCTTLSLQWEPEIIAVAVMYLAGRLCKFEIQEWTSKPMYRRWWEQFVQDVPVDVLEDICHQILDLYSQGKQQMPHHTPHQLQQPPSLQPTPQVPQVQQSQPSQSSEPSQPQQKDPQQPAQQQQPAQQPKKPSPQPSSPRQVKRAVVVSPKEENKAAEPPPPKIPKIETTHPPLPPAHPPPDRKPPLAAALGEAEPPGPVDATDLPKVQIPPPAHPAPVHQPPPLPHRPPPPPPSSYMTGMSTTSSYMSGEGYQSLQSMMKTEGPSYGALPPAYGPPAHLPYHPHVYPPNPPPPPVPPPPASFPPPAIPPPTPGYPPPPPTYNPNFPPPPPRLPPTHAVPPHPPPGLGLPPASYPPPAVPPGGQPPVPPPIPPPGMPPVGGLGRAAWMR", "T1 sequence (Q16531 2-1140 limits assumed)": "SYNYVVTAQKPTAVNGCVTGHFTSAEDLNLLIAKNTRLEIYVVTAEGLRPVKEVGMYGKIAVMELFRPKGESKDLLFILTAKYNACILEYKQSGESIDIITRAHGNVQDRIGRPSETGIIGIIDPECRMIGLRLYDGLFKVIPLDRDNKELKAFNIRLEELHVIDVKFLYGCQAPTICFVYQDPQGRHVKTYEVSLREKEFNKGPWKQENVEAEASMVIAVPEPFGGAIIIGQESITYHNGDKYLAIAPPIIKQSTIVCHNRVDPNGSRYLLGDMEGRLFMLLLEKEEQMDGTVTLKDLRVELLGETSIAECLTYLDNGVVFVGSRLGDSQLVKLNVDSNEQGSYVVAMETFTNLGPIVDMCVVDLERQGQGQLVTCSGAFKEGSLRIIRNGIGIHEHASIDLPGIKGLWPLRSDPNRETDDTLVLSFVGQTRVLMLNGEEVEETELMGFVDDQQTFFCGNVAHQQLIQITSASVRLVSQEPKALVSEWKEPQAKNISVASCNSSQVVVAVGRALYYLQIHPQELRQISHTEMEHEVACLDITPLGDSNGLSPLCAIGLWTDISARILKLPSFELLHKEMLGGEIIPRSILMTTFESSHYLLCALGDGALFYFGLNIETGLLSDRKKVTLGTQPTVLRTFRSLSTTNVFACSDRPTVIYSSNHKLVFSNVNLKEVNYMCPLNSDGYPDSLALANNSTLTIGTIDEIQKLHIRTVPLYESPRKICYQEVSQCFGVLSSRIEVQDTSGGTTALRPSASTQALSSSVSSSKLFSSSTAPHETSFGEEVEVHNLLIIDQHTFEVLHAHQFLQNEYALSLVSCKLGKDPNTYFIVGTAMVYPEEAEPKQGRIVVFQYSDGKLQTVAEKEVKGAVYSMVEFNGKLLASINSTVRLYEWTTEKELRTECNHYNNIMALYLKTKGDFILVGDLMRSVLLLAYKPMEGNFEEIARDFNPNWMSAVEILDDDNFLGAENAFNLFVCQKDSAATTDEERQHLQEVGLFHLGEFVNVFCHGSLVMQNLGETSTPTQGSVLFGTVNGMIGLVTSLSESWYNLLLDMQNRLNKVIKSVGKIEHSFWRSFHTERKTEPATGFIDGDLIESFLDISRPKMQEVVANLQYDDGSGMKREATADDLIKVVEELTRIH", "assay": "Label-free quantitative mass spectrometry in MDA-MB-231 cells, CDK13", "assay_type": "cell-based", "description": "MDA-MB-231 cells were treated with DMSO or a cyclin K degrader compound at 1 µM for 5 h. Cells were collected by centrifugation and washed with phosphate-buffered saline before snap freezing in liquid nitrogen. Cells were lysed by addition of lysis buffer (8 M urea, 50 mM NaCl, 50 mM 4-(2-hydroxyethyl)-1-piperazineethanesulfonic acid (EPPS) pH 8.5, and protease and phosphatase inhibitors) and homogenization by bead beating (BioSpec) for three repeats of 30 s at 2,400 rpm. Bradford assay was used to determine the final protein concentration in the clarified cell lysate. Then 50 µg of protein for each sample was reduced, alkylated and precipitated using methanol/chloroform as previously described, and the resulting washed precipitated protein was allowed to air dry. Precipitated protein was resuspended in 4 M urea, 50 mM HEPES pH 7.4, followed by dilution to 1 M urea with the addition of 200 mM EPPS, pH 8. Proteins were first digested with LysC (1:50; enzyme:protein) for 12 h at room temperature. The LysC digestion was diluted to 0.5 M urea with 200 mM EPPS pH 8 followed by digestion with trypsin (1:50; enzyme:protein) for 6 h at 37 °C. Sample digests were acidified with formic acid to a pH of 2–3 before desalting using C18 solid phase extraction plates (SOLA, Thermo Fisher Scientific). Desalted peptides were dried in a vacuum-centrifuged and reconstituted in 0.1% formic acid for liquid chromatography–mass spectrometry analysis.\nData were collected using a TimsTOF Pro2 (Bruker Daltonics) coupled to a nanoElute LC pump (Bruker Daltonics) via a CaptiveSpray nano-electrospray source. Peptides were separated on a reversed-phase C18 column (25 cm × 75 µm inner diameter, […], IonOpticks) containing an integrated captive spray emitter. Peptides were separated using a 50 min gradient of 2–30% buffer B (acetonitrile in 0.1% formic acid) with a flow rate of 250 nl min^−1 and column temperature maintained at 50 °C.\nData-dependent acquisition (DDA) was performed in Parallel Accumulation-Serial Fragmentation (PASEF) mode to determine effective ion mobility windows for downstream diaPASEF data collection. The ddaPASEF parameters included: 100% duty cycle using accumulation and ramp times of 50 ms each, one Trapped Ion Mobility Spectrometry(TIMS)-MS scan and ten PASEF ramps per acquisition cycle. The TIMS-MS survey scan was acquired between 100 m/z and 1,700 m/z and 1/K0 of 0.7–1.3 V s cm^−2. Precursors with one to five charges were selected, and those that reached an intensity threshold of 20,000 arbitrary units were actively excluded for 0.4 min. The quadrupole isolation width was set to 2 m/z for m/z < 700 and 3 m/z for m/z > 800, with the m/z between 700 m/z and 800 m/z being interpolated linearly. […] To perform diaPASEF, the precursor distribution in the DDA m/z-ion mobility plane was used to design an acquisition scheme for data-independent acquisition (DIA) data collection that included two windows in each 50 ms diaPASEF scan. Data were acquired using 16 of these 25 Da precursor double window scans (creating 32 windows) that covered the diagonal scan line for doubly and triply charged precursors, with singly charged precursors able to be excluded by their position in the m/z-ion mobility plane. These precursor isolation windows were defined between 400 m/z and 1,200 m/z and 1/K0 of 0.7–1.3 V s cm^−2.\nDirectDIA mode includes first extracting the DIA data into a collection of MS2 spectra which are searched using Spectronaut’s Pulsar search engine. The search results are then used to generate a spectral library which is then employed for the targeted analysis of the DIA data. MS/MS spectra were searched against a Swissprot human database (January 2021). Database search criteria largely followed the default settings for directDIA including: tryptic with two missed cleavages, fixed carbomidomethylation of cysteine, and variable oxidation of methionine and acetylation of protein N-termini and precursor Q-value (FDR) cut-off of 0.01. […]"}, "CDK12–cyclin K and DDB1": {"target": "T2, CDK12–cyclin K and DDB1 (Homo sapiens, UniProt Q16531+Q9NYV4, K965R)", "T2 construct": "His6–CDK12 (a.a. 713–1,052); full-length or beta-propeller B domain deletion (ΔBPB: a.a. 396–705 deleted) constructs of His6–DDB1ΔBPB, StrepII–Avi–DDB1, or His6–Spy–DDB1; made in house; host or cells: Trichoplusia ni High Five insect cells (baculovirus)", "T2 sequence (Q9NYV4 713-1052 K965R)": "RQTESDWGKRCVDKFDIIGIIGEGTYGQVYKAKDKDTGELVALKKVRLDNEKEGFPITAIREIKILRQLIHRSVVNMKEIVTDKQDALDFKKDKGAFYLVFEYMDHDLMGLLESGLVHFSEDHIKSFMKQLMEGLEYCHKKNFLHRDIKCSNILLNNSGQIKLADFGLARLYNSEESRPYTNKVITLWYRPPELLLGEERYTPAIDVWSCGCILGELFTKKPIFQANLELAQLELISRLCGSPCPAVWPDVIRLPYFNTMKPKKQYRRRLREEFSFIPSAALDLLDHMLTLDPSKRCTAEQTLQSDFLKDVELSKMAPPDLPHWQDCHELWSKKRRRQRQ", "T2 sequence (O75909 1-267 partner)": "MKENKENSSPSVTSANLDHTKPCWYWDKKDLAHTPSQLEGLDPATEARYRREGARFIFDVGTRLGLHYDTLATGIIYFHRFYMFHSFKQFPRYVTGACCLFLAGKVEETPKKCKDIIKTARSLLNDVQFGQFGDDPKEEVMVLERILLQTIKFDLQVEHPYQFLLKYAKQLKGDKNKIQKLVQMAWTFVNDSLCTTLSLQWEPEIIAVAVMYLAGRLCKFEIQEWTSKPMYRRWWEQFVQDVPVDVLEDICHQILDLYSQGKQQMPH", "T2 sequence (Q16531 whole entry)": "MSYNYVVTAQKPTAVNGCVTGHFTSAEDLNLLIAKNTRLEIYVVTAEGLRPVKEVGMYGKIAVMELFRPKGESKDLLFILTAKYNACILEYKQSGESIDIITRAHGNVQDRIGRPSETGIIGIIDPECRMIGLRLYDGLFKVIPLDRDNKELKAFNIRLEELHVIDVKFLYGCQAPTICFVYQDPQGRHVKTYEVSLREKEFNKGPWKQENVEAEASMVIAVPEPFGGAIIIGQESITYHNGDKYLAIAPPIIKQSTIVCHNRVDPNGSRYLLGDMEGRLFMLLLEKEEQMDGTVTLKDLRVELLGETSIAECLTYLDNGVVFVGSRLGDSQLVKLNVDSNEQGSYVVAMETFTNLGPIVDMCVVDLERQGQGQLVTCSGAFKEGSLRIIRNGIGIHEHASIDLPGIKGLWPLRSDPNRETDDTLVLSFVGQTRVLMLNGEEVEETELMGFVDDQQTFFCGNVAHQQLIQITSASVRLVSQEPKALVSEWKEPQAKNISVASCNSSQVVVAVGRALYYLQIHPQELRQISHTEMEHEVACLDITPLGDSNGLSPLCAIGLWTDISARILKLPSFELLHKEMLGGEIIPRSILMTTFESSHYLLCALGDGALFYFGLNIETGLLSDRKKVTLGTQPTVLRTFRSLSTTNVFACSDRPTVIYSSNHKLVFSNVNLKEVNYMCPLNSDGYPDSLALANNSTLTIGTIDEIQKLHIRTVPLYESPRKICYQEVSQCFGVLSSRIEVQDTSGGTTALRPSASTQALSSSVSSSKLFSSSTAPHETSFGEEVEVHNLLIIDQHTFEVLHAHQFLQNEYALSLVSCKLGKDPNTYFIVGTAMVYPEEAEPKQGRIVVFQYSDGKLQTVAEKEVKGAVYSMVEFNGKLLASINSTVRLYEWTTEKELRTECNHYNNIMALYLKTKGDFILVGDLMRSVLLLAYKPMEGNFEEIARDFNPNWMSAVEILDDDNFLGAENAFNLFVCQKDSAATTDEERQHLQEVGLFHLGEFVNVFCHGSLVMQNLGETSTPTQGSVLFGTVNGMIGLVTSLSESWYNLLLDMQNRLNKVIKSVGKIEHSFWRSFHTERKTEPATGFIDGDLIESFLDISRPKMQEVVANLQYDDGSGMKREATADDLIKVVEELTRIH", "assay": "TR-FRET ternary complex formation assay (compound titration)", "assay_type": "binding", "procedure,_shortened": "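Background fluorescence is reduced by reading 70 μs after excitation, and complex formation is followed as the 520:490 nm fluorescence ratio.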"}, "CDK12–cyclin K": {"target": "CDK12–cyclin K (Homo sapiens, UniProt Q9NYV4)", "sequence (Q9NYV4 713-1052)": "as the sequence (Q9NYV4 713-1052 K965R) above, with R253K counted along it", "sequence (O75909 1-267 partner limits assumed)": "as the sequence (O75909 1-267 partner) above", "assay": "Lanthascreen kinase binding assay, CDK12", "conditions": "for Lanthascreen raw signal, sheet CDK12: duplicates", "description": "Lanthascreen experiments were performed using commercially available reagents (Thermo Fisher) and according to the manufacturer’s instructions."}}, "note": "“And” between values parts separate entries of the source, which are not always exact repeats. Equal values may be shown once. Read-outs that look alike come from different tables or passages of the source."}
{"smiles": "Cc1cccc(Nc2nc(CC(=O)Nc3ncc(C)s3)cs2)n1", "note": "[HQ461]", "values": [{"measurement": "CDK13 peptide count", "setting": "CDK13; label-free quantitative MS, replicate values", "result": "467.381 and 369.821"}, {"measurement": "CDK13 peptide count (DMSO-normalised)", "setting": "CDK13; normalised to DMSO = 1, replicate values", "result": "0.6953 and 0.5683"}, {"measurement": "TR-FRET signal", "setting": "CDK12–cyclin K and DDB1; compound concentration 0.468 nM", "result": "0.1979 and 0.1985 and 0.1957"}, {"measurement": "TR-FRET signal", "setting": "CDK12–cyclin K and DDB1; compound concentration 2.16 nM", "result": "0.2749 and 0.2453 and 0.2785"}, {"measurement": "TR-FRET signal", "setting": "CDK12–cyclin K and DDB1; compound concentration 3.6 nM", "result": "0.4419 and 0.4117 and 0.4333 and 0.5417 and 0.5175"}, {"measurement": "TR-FRET signal", "setting": "CDK12–cyclin K and DDB1; compound concentration 7.92001 nM", "result": "0.7305 and 0.6786 and 0.7304"}, {"measurement": "TR-FRET signal", "setting": "CDK12–cyclin K and DDB1; compound concentration 15.84 nM", "result": "1.213 and 1.144 and 1.137 and 1.215 and 1.133"}, {"measurement": "TR-FRET signal", "setting": "CDK12–cyclin K and DDB1; compound concentration 30.96 nM", "result": "1.762 and 1.75 and 1.847"}, {"measurement": "TR-FRET signal", "setting": "CDK12–cyclin K and DDB1; compound concentration 62.6401 nM", "result": "2.4486 and 2.52 and 2.516 and 2.475 and 2.32"}, {"measurement": "TR-FRET signal", "setting": "CDK12–cyclin K and DDB1; compound concentration 125.28 nM", "result": "3.077 and 3.1244 and 3.038"}, {"measurement": "TR-FRET signal", "setting": "CDK12–cyclin K and DDB1; compound concentration 244.8 nM", "result": "3.496 and 3.492 and 3.484 and 3.752 and 3.554"}, {"measurement": "TR-FRET signal", "setting": "CDK12–cyclin K and DDB1; compound concentration 993.601 nM", "result": "3.886 and 3.922 and 3.8902 and 4.115 and 3.832"}, {"measurement": "TR-FRET signal", "setting": "CDK12–cyclin K and DDB1; compound concentration 2001.6 nM", "result": "3.927 and 3.936 and 3.967 and 4.085 and 3.674"}, {"measurement": "EC50", "setting": "CDK12–cyclin K and DDB1; in vitro complex formation, 50 nM CDK12–cyclin K, 100 nM DDB1, text and figures, read-out: TR-FRET EC50", "result": "43 ± 13", "unit": "nM"}, {"measurement": "EC50", "setting": "CDK12–cyclin K and DDB1; sheet MOESM7, read-out: log TR-FRET EC50 (converted)", "result": 42.7, "unit": "nM"}, {"measurement": "EC50", "setting": "CDK12–cyclin K and DDB1; source data sheet correlations, read-out: TR-FRET EC50", "result": 42.7, "unit": "nM"}, {"measurement": "IC50", "setting": "CDK12–cyclin K; Lanthascreen, read-out: CDK12 inhibition", "result": "> 10000", "unit": "nM"}, {"measurement": "IC50", "setting": "CDK12–cyclin K; Supplementary Table 2, read-out: Lanthascreen IC50 [nM] CDK12", "result": "> 10000", "unit": "nM"}, {"measurement": "Lanthascreen raw signal, sheet CDK12", "setting": "CDK12–cyclin K; compound 0.038147 nM, series r13", "result": "0.01223 and 0.01089"}, {"measurement": "Lanthascreen raw signal, sheet CDK12", "setting": "CDK12–cyclin K; compound 0.152588 nM, series r13", "result": "0.01192 and 0.01181"}, {"measurement": "Lanthascreen raw signal, sheet CDK12", "setting": "CDK12–cyclin K; compound 0.610352 nM, series r13", "result": "0.01147 and 0.01206"}, {"measurement": "Lanthascreen raw signal, sheet CDK12", "setting": "CDK12–cyclin K; compound 1.02544 nM, series r1", "result": "0.009388 and 0.008109"}, {"measurement": "Lanthascreen raw signal, sheet CDK12", "setting": "CDK12–cyclin K; compound 3.15521 nM, series r1", "result": "0.008061 and 0.009006"}, {"measurement": "Lanthascreen raw signal, sheet CDK12", "setting": "CDK12–cyclin K; compound 9.46563 nM, series r1", "result": "0.008944 and 0.009513"}, {"measurement": "Lanthascreen raw signal, sheet CDK12", "setting": "CDK12–cyclin K; compound 9.76563 nM, series r13", "result": "0.01062 and 0.01153"}, {"measurement": "Lanthascreen raw signal, sheet CDK12", "setting": "CDK12–cyclin K; compound 31.5521 nM, series r1", "result": "0.009567 and 0.009846"}, {"measurement": "Lanthascreen raw signal, sheet CDK12", "setting": "CDK12–cyclin K; compound 39.0625 nM, series r13", "result": "0.01003 and 0.0116"}, {"measurement": "Lanthascreen raw signal, sheet CDK12", "setting": "CDK12–cyclin K; compound 99.3891 nM, series r1", "result": "0.009103 and 0.01044"}, {"measurement": "Lanthascreen raw signal, sheet CDK12", "setting": "CDK12–cyclin K; compound 156.25 nM, series r13", "result": "0.0115 and 0.0116"}, {"measurement": "Lanthascreen raw signal, sheet CDK12", "setting": "CDK12–cyclin K; compound 315.521 nM, series r1", "result": "0.007883 and 0.008557"}, {"measurement": "Lanthascreen raw signal, sheet CDK12", "setting": "CDK12–cyclin K; compound 625 nM, series r13", "result": "0.01055 and 0.01154"}, {"measurement": "Lanthascreen raw signal, sheet CDK12", "setting": "CDK12–cyclin K; compound 2500 nM, series r13", "result": "0.01098 and 0.01126"}, {"measurement": "Lanthascreen raw signal, sheet CDK12", "setting": "CDK12–cyclin K; compound 3155.21 nM, series r1", "result": "0.006491 and 0.00695"}, {"measurement": "Lanthascreen raw signal, sheet CDK12", "setting": "CDK12–cyclin K; compound 10000 nM, series r13", "result": "0.01006 and 0.01041"}, {"measurement": "Lanthascreen raw signal, sheet CDK12", "setting": "CDK12–cyclin K; compound 10002 nM, series r1", "result": "0.00959 and 0.009612"}]}
